According to patent publication US20040138104A1, “Peptides” (priority 2003, published 2004):
Like-named read-outs stand apart in the source and are kept apart here.

Legend:
PTB1B = biological target: T1, PTB1B (Homo sapiens, UniProt P18031); format: biochemical; conditions: read-out: IC50 Values in μM Against Various Enzymes: PTB1B
T1 sequence (P18031 1-435): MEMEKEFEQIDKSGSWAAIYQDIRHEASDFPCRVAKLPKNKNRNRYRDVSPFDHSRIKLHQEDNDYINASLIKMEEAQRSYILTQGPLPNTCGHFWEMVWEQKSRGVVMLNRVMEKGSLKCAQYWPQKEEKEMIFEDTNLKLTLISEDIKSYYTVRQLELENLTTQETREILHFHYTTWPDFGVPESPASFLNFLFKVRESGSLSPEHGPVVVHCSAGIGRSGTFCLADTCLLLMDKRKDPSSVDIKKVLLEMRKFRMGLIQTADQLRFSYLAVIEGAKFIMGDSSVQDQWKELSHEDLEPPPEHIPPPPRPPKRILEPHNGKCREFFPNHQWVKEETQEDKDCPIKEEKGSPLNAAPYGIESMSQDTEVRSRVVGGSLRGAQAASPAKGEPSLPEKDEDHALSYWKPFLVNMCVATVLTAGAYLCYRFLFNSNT

YopH = YopH (Yersinia pestis, UniProt O68720); assay: biochemical
Chain of YopH (O68720 1-468): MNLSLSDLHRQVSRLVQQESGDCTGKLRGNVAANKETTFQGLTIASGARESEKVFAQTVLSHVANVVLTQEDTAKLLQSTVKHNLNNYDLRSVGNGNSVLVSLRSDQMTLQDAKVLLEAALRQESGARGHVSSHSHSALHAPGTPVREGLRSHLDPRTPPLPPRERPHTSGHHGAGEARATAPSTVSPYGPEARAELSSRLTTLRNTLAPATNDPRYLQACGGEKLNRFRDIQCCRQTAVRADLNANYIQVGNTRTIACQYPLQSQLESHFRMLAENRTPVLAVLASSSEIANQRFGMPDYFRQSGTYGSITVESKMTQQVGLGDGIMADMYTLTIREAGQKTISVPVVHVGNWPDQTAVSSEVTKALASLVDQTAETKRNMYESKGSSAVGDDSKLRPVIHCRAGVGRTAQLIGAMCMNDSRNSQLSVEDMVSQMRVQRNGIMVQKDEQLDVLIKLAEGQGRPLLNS

[1] = read-out: IC50 Values in μM Against Various Enzymes: YopH

CC(C)C[C@H](NC(=O)[C@H](Cc1ccc(OCC(=O)O)cc1)NC(=O)[C@H](CCC(=O)OCc1ccccc1)NC(=O)OCC1c2ccccc2-c2ccccc21)C(N)=O [TB 26]
IC50 (PTB1B): 4.6 ± 2 µM
IC50 (YopH; [1]): 2.8 ± 1.1 µM

CC(C)C[C@H](NC(=O)[C@H](Cc1ccc(OCC(=O)O)c(OCC(=O)O)c1)NC(=O)[C@H](CCC(=O)OCc1ccccc1)NC(=O)OCC1c2ccccc2-c2ccccc21)C(N)=O [TB 29]
IC50 (PTB1B): 19.4 ± 3.6 µM
IC50 (YopH; [1]): 19.4 ± 3.3 µM

CC(C)C[C@H](NC(=O)[C@H](Cc1ccc(C(F)(C(=O)O)C(=O)O)cc1)NC(=O)[C@H](CCC(=O)OCc1ccccc1)NC(=O)OCC1c2ccccc2-c2ccccc21)C(N)=O [TB 34]
IC50 (YopH): 3 ± 0.7 µM

CC(C)C[C@H](NC(=O)[C@H](Cc1ccc(OCC(=O)O)cc1)NC(=O)[C@H](CCC(=O)OCc1ccccc1)NC(=O)OCc1ccccc1)C(N)=O [TB 39]
IC50 (PTB1B): 72 ± 14 µM
IC50 (YopH; [1]): 119 ± 14 µM

CC(C)C[C@H](NC(=O)[C@H](Cc1ccc(OCC(=O)O)cc1)NC(=O)[C@H](CCC(=O)OCc1ccccc1)NC(=O)OCCc1ccccc1)C(N)=O [TB 40]
IC50 (YopH): 80 ± 8.5 µM
